Measurements from ChEMBL document CHEMBL1158030, “Endophyte fungal isolates from Podophyllum peltatum produce podophyllotoxin” (J Nat Prod, 2006).
Converted amounts (≈) assume the structure as drawn.

Test: Toxicity in brine shrimp after 24 hrs
Format: organism-based
Conditions: artemia, in vivo; read-out: LD50

Q: Which LC50 at 24 h does the source give for `COc1cc([C@@H]2c3cc4c(cc3[C@H](O)[C@H]3COC(=O)[C@H]23)OCO4)cc(OC)c1OC` [PODOFILOX] here?
A: 2 µg/mL (≈ 4.83 µM)
